Measurements from patent US12344623B2, “Thiazolopyridine derivatives as adenosine receptor antagonists” (Merck Patent GmbH, priority 2019, dated 2025).
Where two headings read alike, the source gives them in different places.

Legend:
Type in all cases: cell-based
human A2A receptor = human A2A receptor (Homo sapiens, UniProt P29274); test: Functional A2A receptor activity, recombinant HEK293 cells, cAMP (HTRF), agonist NECA; design: expressed in transfected cells; host or cells: HEK293
Protocol: (§1) The functional activities of human A2A, A2B, A1 and A3 receptors were determined by quantification of cAMP, being the second messenger for adenosine receptors.
(§2) Cells were seeded into 384-well plates, forskolin, test compounds and agonists (CPA for A1- and IB-MECA for A3-receptor) were added. After 30 min incubation, HTRF reagents (cAMP dynamic 2, Cis Bio) were added and the cellular cAMP levels were determined using the ENVISION (Perkin Elmer) plate reader. Obtained raw data were normalized against the inhibitor control and the neural control (DMSO) and the normalized data were fitted using GeneData software.

human A1 receptor = biological target: T1, human A1 receptor (Homo sapiens, UniProt P30542); test: Functional A1 receptor activity, recombinant CHO cells, cAMP (HTRF), forskolin, agonist CPA
T1 construct: expressed in transfected cells; host or cells: CHO
T1 sequence (P30542 1-326): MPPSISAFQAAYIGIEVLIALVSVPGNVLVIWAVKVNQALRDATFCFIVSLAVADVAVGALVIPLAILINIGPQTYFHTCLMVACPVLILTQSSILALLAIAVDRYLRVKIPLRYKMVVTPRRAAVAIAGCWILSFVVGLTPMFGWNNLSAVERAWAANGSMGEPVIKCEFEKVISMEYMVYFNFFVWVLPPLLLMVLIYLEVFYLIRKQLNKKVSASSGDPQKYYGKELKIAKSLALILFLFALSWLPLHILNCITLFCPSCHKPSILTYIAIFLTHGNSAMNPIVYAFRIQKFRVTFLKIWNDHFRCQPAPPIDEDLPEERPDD
Protocol: as §1
(§3) For human A1 and A3 receptors, recombinant CHO cells, expressing either A1 or A3-receptor, were used. As both receptors couple to Gi proteins, the assay protocol was adapted:
as §2

human A3 receptor = biological target: T2, human A3 receptor (Homo sapiens, UniProt P0DMS8); test: Functional A3 receptor activity, recombinant CHO cells, cAMP (HTRF), forskolin, agonist IB-MECA
T2 construct: expressed in transfected cells; host or cells: CHO
T2 sequence (P0DMS8 1-318): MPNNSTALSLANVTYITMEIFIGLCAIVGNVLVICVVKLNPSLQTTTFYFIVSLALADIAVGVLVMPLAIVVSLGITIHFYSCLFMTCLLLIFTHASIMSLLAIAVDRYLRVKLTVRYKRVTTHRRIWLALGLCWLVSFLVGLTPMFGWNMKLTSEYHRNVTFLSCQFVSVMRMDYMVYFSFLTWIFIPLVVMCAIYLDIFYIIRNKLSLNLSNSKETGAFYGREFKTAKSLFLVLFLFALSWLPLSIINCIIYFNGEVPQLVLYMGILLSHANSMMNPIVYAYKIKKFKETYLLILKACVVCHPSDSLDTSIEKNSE
Protocol: as §1, §3, §2

human A2B receptor = biological target: T3, human A2B receptor (Homo sapiens, UniProt P29275); test: Functional A2B receptor activity, recombinant HEK293 cells, cAMP (HTRF), agonist NECA
T3 construct: expressed in transfected cells; host or cells: HEK293
T3 sequence (P29275 1-332): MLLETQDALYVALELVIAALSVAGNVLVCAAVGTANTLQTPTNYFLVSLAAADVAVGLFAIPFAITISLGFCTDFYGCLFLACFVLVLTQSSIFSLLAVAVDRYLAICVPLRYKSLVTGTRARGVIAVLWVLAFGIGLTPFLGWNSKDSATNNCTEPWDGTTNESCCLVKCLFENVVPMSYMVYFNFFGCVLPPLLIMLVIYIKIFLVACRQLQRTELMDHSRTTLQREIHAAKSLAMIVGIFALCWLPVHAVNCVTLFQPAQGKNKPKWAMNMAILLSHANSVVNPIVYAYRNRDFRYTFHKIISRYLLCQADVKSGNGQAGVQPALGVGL
Protocol: as §1, §2

[1] = read-out: Functional A2A receptor activity, HEK293, cAMP, IC50
[2] = recombinant CHO cells, forskolin, agonist CPA, read-out: Functional A1 receptor activity, CHO, cAMP, IC50
[3] = recombinant CHO cells, forskolin, agonist IB-MECA, read-out: Functional A3 receptor activity, CHO, cAMP, IC50
[4] = read-out: Functional A2B receptor activity, HEK293, cAMP, IC50
[5] = recombinant CHO cells, forskolin, agonist CPA, cAMP, read-out: Functional A1 receptor activity, CHO, cAMP, IC50
[6] = recombinant CHO cells, forskolin, agonist IB-MECA, cAMP, read-out: Functional A3 receptor activity, CHO, cAMP, IC50

Sequence of human A2A receptor (P29274 whole entry): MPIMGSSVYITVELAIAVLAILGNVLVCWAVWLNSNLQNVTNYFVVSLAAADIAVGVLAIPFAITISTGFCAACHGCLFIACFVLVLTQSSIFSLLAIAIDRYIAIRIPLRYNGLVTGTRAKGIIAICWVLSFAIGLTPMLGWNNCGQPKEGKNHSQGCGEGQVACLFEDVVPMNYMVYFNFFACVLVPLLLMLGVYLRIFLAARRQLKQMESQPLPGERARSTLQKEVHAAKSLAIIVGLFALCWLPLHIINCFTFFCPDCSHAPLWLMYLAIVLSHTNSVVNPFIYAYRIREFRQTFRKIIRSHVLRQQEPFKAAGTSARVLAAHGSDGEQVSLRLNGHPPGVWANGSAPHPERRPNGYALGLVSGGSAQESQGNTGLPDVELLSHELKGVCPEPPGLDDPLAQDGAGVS

COc1ncc(-c2ccccc2)c2sc(NC(=O)c3c[nH]cn3)nc12 [Compound 60, 1H-Imidazole-4-carboxylic acid (4-methoxy-7-phenyl-thiazolo[4,5-c]pyridin-2-yl)-amide]
IC50 (human A2A receptor; [1]): < 10 nM | IC50 (human A1 receptor; [2]): < 1000 nM | IC50 (human A3 receptor; [3]): < 1000 nM | IC50 (human A2B receptor; [4]): < 10 nM

COc1ncc(C2=CCSCC2)c2sc(NC(=O)N3CCC4(CCOCC4)C3)nc12 [Compound 64, 8-Oxa-2-aza-spiro[4.5]decane-2-carboxylic acid [7-(3,6-dihydro-2H-thiopyran-4-yl)-4-methoxy-thiazolo[4,5-c]pyridin-2-yl]-amide]
IC50 (human A2A receptor; [1]): < 10 nM | IC50 (human A1 receptor; [2]): < 1000 nM | IC50 (human A3 receptor; [3]): > 1000 nM | IC50 (human A2B receptor; [4]): < 10 nM

COc1cnc(N2CCOCC2)c2sc(NC(=O)N3CCOCC3)nc12 [drawing 193, reference compound]
IC50 (human A2A receptor; [1]): < 10 nM | IC50 (human A1 receptor; [5]): > 1000 nM | IC50 (human A3 receptor; [6]): < 1000 nM | IC50 (human A2B receptor; [4]): < 1000 nM

COc1ncc(C2=CCOCC2)c2sc(NC(=O)Nc3ccc(NC(=O)CN(C)C)cc3)nc12 [Compound 90, N-[4-({[7-(3,6-dihydro-2H-pyran-4-yl)-4-methoxy-[1,3]thiazolo[4,5-c]pyridin-2-yl]carbamoyl}amino)phenyl]-2-(dimethylamino)acetamide]
IC50 (human A2A receptor; [1]): < 10 nM | IC50 (human A1 receptor; [2]): > 1000 nM | IC50 (human A3 receptor; [3]): > 1000 nM | IC50 (human A2B receptor; [4]): < 10 nM

COc1nc(F)c(-c2ccc(F)cc2)c2sc(NC(=O)N3CCC(C)(O)CC3)nc12 [Compound 27, 4-Hydroxy-4-methyl-piperidine-1-carboxylic acid [6-fluoro-7-(4-fluoro-phenyl)-4-methoxy-thiazolo[4,5-c]pyridin-2-yl]-amide]
IC50 (human A2A receptor; [1]): < 10 nM | IC50 (human A1 receptor; [2]): < 1000 nM | IC50 (human A3 receptor; [3]): > 1000 nM | IC50 (human A2B receptor; [4]): < 10 nM

COc1ncc(C2=CCOCC2)c2sc(NC(=O)c3ccc(C(=O)N4CCC(C)(O)CC4)cc3)nc12 [Compound 129, N-[7-(3,6-Dihydro-2H-pyran-4-yl)-4-methoxy-thiazolo[4,5-c]pyridin-2-yl]-4-(4-hydroxy-4-methyl-piperidine-1-carbonyl)-benzamide]
IC50 (human A2A receptor; [1]): < 10 nM | IC50 (human A1 receptor; [2]): < 1000 nM | IC50 (human A3 receptor; [3]): > 1000 nM | IC50 (human A2B receptor; [4]): < 100 nM

COc1ncc(C2COCCO2)c2sc(NC(=O)N3CCC4(CCOCC4)C3)nc12 (stereo not shown) [Compound 73, 8-Oxa-2-aza-spiro[4.5]decane-2-carboxylic acid (7-[1,4]dioxan-2-yl-4-methoxy-thiazolo[4,5-c]pyridin-2-yl)-amide]
IC50 (human A2A receptor; [1]): < 10 nM | IC50 (human A1 receptor; [2]): > 1000 nM | IC50 (human A3 receptor; [3]): > 1000 nM | IC50 (human A2B receptor; [4]): < 100 nM

COc1ncc(C2=CCOCC2)c2sc(NC(=O)Nc3ccc(NC(C)=O)c(C)c3)nc12 [Compound 92, N-[4-({[7-(3,6-dihydro-2H-pyran-4-yl)-4-methoxy-[1,3]thiazolo[4,5-c]pyridin-2-yl]carbamoyl}amino)-2-methylphenyl]acetamide]
IC50 (human A2A receptor; [1]): < 10 nM | IC50 (human A1 receptor; [2]): < 100 nM | IC50 (human A3 receptor; [3]): < 1000 nM | IC50 (human A2B receptor; [4]): < 10 nM

COc1ccc(N2CCOCC2)c2sc(NC(=O)N3CCOCC3)nc12 [reference compound]
IC50 (human A2A receptor; [1]): < 10 nM | IC50 (human A1 receptor; [5]): > 1000 nM | IC50 (human A3 receptor; [6]): > 1000 nM | IC50 (human A2B receptor; [4]): < 1000 nM

COc1ncc(C2=CCOC2)c2sc(NC(=O)N3CCC4(CCCOC4)C3)nc12 (stereo not shown) [Compound 45, N-[7-(2,5-dihydrofuran-3-yl)-4-methoxy-[1,3]thiazolo[4,5-c]pyridin-2-yl]-7-oxa-2-azaspiro[4.5]decane-2-carboxamide]
IC50 (human A2A receptor; [1]): < 100 nM | IC50 (human A1 receptor; [2]): > 1000 nM | IC50 (human A3 receptor; [3]): > 1000 nM | IC50 (human A2B receptor; [4]): < 100 nM

COc1ccc(C2CCOCC2)c2sc(NC(=O)N3CCC4(CC3)OCCO4)nc12 [reference compound]
IC50 (human A2A receptor): < 10 nM | IC50 (human A1 receptor): > 1000 nM | IC50 (human A3 receptor): > 1000 nM | IC50 (human A2B receptor): < 1000 nM

COc1ncc([C@@H]2COCCO2)c2sc(NC(=O)c3ccc(C(=O)O)cc3)nc12 [Compound 169, N-((R)-7-[1,4]Dioxan-2-yl-4-methoxy-thiazolo[4,5-c]pyridin-2-yl)-terephthalamic acid]
IC50 (human A2A receptor; [1]): < 10 nM | IC50 (human A1 receptor; [2]): > 1000 nM | IC50 (human A3 receptor; [3]): > 1000 nM | IC50 (human A2B receptor; [4]): < 100 nM

COc1ncc(C2=CC(=O)CC2)c2sc(NC(=O)N3CCC4(CCOCC4)C3)nc12 [Compound 40, 8-Oxa-2-aza-spiro[4.5]decane-2-carboxylic acid [4-methoxy-7-(3-oxo-cyclopent-1-enyl)-thiazolo[4,5-c]pyridin-2-yl]-amide]
IC50 (human A2A receptor; [1]): < 100 nM | IC50 (human A1 receptor; [2]): > 1000 nM | IC50 (human A3 receptor; [3]): > 1000 nM | IC50 (human A2B receptor; [4]): < 100 nM

COc1ncc(-c2ccccc2)c2sc(NC(=O)c3ccc(C(=O)O)cc3)nc12 [Compound 109, 4-({4-methoxy-7-phenyl-[1,3]thiazolo[4,5-c]pyridin-2-yl}carbamoyl)benzoic acid]
IC50 (human A2A receptor; [1]): < 10 nM | IC50 (human A1 receptor; [2]): > 1000 nM | IC50 (human A3 receptor; [3]): > 1000 nM | IC50 (human A2B receptor; [4]): < 10 nM

COc1nc(F)c(N2CCOCC2)c2sc(NC(=O)C3CC3)nc12 [Compound 4, Cyclopropanecarboxylic acid (6-fluoro-4-methoxy-7-morpholin-4-yl-thiazolo[4,5-c]pyridin-2-yl)-amide]
IC50 (human A2A receptor; [1]): < 10 nM | IC50 (human A1 receptor; [2]): > 1000 nM | IC50 (human A3 receptor; [3]): < 1000 nM | IC50 (human A2B receptor; [4]): < 10 nM

COc1ncc(C2=CCC(OC)CC2)c2sc(NC(=O)N3CC[C@]4(CCCOC4)C3)nc12 (stereo partly drawn) [Compound 70, (5R)-N-[4-methoxy-7-(4-methoxycyclohex-1-en-1-yl)-[1,3]thiazolo[4,5-c]pyridin-2-yl]-7-oxa-2-azaspiro[4.5]decane-2-carboxamide]
IC50 (human A2A receptor; [1]): < 10 nM | IC50 (human A1 receptor; [2]): > 1000 nM | IC50 (human A3 receptor; [3]): > 1000 nM | IC50 (human A2B receptor; [4]): < 1000 nM

COc1nc(F)c(C2CCOCC2)c2sc(NC(=O)C3CC3)nc12 [Compound 28, Cyclopropanecarboxylic acid [6-fluoro-4-methoxy-7-(tetrahydro-pyran-4-yl)-thiazolo[4,5-c]pyridin-2-yl]-amide]
IC50 (human A2A receptor; [1]): < 10 nM | IC50 (human A1 receptor; [2]): < 1000 nM | IC50 (human A3 receptor; [3]): < 1000 nM | IC50 (human A2B receptor; [4]): < 100 nM

COc1ncc(-c2csc(C)n2)c2sc(NC(=O)N3CCC4(CCOCC4)C3)nc12 [Compound 67, 8-Oxa-2-aza-spiro[4.5]decane-2-carboxylic acid [4-methoxy-7-(2-methyl-thiazol-4-yl)-thiazolo[4,5-c]pyridin-2-yl]-amide]
IC50 (human A2A receptor; [1]): < 10 nM | IC50 (human A1 receptor; [2]): < 1000 nM | IC50 (human A3 receptor; [3]): > 1000 nM | IC50 (human A2B receptor; [4]): < 100 nM

COc1ncc(C2=CCOCC2)c2sc(NC(=O)c3cnn(-c4ccncc4)c3)nc12 [Compound 157, 1-Pyridin-4-yl-1H-pyrazole-4-carboxylic acid [7-(3,6-dihydro-2H-pyran-4-yl)-4-methoxy-thiazolo[4,5-c]pyridin-2-yl]-amide]
IC50 (human A2A receptor; [1]): < 10 nM | IC50 (human A1 receptor; [2]): < 1000 nM | IC50 (human A3 receptor; [3]): > 1000 nM | IC50 (human A2B receptor; [4]): < 10 nM

COc1ncc(-c2cccc(NS(C)(=O)=O)c2)c2sc(NC(=O)N3CCC4(CCOCC4)C3)nc12 [Compound 120, 8-Oxa-2-aza-spiro[4.5]decane-2-carboxylic acid [7-(3-methanesulfonylamino-phenyl)-4-methoxy-thiazolo[4,5-c]pyridin-2-yl]-amide]
IC50 (human A2A receptor; [1]): < 100 nM | IC50 (human A1 receptor; [2]): > 1000 nM | IC50 (human A3 receptor; [3]): > 1000 nM

COc1ncc(-c2cnn(C[C@@H]3CCCCO3)c2)c2sc(NC(=O)N3CCC4(CCOCC4)C3)nc12 [Compound 118, 8-Oxa-2-aza-spiro[4.5]decane-2-carboxylic acid (4-methoxy-7-{1-[(S)-1-(tetrahydro-pyran-2-yl)methyl]-1H-pyrazol-4-yl}-thiazolo[4,5-c]pyridin-2-yl)-amide]
IC50 (human A2A receptor; [1]): < 10 nM | IC50 (human A3 receptor; [3]): > 1000 nM | IC50 (human A2B receptor; [4]): < 100 nM
